Data taken from patent US11547677B2, “Transmucosal delivery system for idebenone” (LTS LOHMANN THERAPIE-SYSTEME AG, priority 2017, dated 2023).
Structures can show the parent of a compound that is named as a salt.

Experiments:
[1] = Saturation concentration of idebenone in the inner, hydrophobic, phase (HPLC of supernatant); type: physicochemical; details: in composition of the 2nd table (vitamin E, Polysorbate 80, methyl salicylate, eucalyptol, tributyl citrate, Brij S2)
Procedure: Idebenone is added in excess to the inner, hydrophobic, phase, so that even after relatively long stirring solid dregs of active ingredient are still present. Then the dregs are removed by centrifuging. The resulting supernatant contains idebenone in its saturation concentration. This is determined by analysis for example by means of HPLC. The saturation concentration of idebenone for an exemplified composition according to the invention was determined as follows. [table]

[2] = oral administration; cited from earlier work
[3] = n-octanol/water; cited from earlier work

SMILES | saturation concentration ([1]; 4° C.) [g/L] | saturation concentration ([1]; room temperature) [g/L] | idebenone metabolised in the first-pass metabolism [2] | LogP [3]
COC1=C(OC)C(=O)C(CCCCCCCCCCO)=C(C)C1=O [idebenone, 2-(10-hydroxydecyl)-5,6-dimethoxy-3-methyl-cyclohexa-2,5-diene-1,4-dione] | 103 | 145 | more than 98% | 
CCCCOC(=O)CC(O)(CC(=O)OCCCC)C(=O)OCCCC [TBC, tributyl citrate] |  |  |  | LogP = 4.7
CC12CCC(CC1)C(C)(C)O2 [EUC, eucalyptol] |  |  |  | LogP = 2.8
COC(=O)c1ccccc1O [MS, methyl salicylate] |  |  |  | LogP = 2.24
